This note sets out measurements from ChEMBL document CHEMBL5335855, “Structure-Activity Relationships of Natural C-9-Methyl-Substituted 10-Membered Lactones and Their Semisynthetic Derivatives” (J Nat Prod, 2024).

Data set [1] can be described thus: Cytotoxicity against Spodoptera frugiperda Sf9 cells incubated for 24 hrs by trypan blue staining based assay. Format: toxicity, cell-based. To be noted: read-out: LC50.
The nature of data set [2]: Phytotoxicity in Sonchus arvensis assessed as diameter of lesions at 2 mg/ml incubated for 120 hrs by leaf puncture assay. Format: toxicity.
A further data set concerns Bacillus subtilis. Put plainly: Antibacterial activity against Bacillus subtilis NCTC […] assessed as zone of inhibition at 100 ug per disc incubated for 24 hrs by agar diffusion assay. Format: functional. To be noted: read-out: DIZ. (In general: Agar diffusion results depend on both activity and mobility in agar.)
Another data set has as its system Aphididae. The data set is described as follows: Aphicidal activity against insects at 1 mg/ml measured after 24 hrs. Format: functional.
A short description of data set [3]: Toxicity in Galleria mellonella larvae upto 420 mg/kg treated for 14 days in dark. Format: organism-based. To be noted: in vivo, 336 h, time 14 day.
The nature of data set [4]: Toxicity in Galleria mellonella larvae treated for 14 days in dark. To be noted: 336 h, time 14 day.
A further data set has as its system Schizaphis graminum. The data set is described as follows: Aphicidal activity against Schizaphis graminum at 1 mg/ml measured after 24 hrs. Format: functional.
In a further data set the test system is Paramecium caudatum. Put plainly: Toxicity in Paramecium caudatum. Format: organism-based. To be noted: in vivo.
Data set [5] in a line: Cytotoxicity against mouse LM3 cells measured after 24 hrs by MTT assay. Format: functional, cell-based. To be noted: LM3, 24 h. (In general: Tetrazolium dyes change colour on reduction, which living cells bring about.)
The next data set concerns MCF7. The data set is described as follows: Cytotoxicity against human MCF7 cells measured after 24 hrs by MTT assay. Format: functional, cell-based. To be noted: MCF7, 24 h.
Data set [6] is described as follows: Cytotoxicity against mouse LP07 cells measured after 24 hrs by MTT assay. Format: functional, cell-based. To be noted: LP07, 24 h.

Values after ≈ are worked out from the molar mass of the structure shown. Values joined by “and” are separate entries in the source; they are usually repeats but may differ in a detail not shown here. Equal values may be shown once.

As usually defined, the mortality is the share of the test organisms that died. A low value points to a weak lethal effect. With `C[C@@H]1CC[C@@H](O)CCCCC(=O)O1`, the CC50 at 24 h in data set [1] was > 100 µg/mL and > 540 µM. Besides, the Activity in [2] is 0 mm; in data set [3], “Non-Toxic”. Further, the zone of inhibition at 100 µg/disc in the data set on Bacillus subtilis was 0 mm. The mortality at 1000 µg/mL in the data set with Aphididae came to 0%.
In data set [4], `CC(=O)O[C@H]1/C=C/C=C\C(=O)O[C@H](C)CC1` gave an LC50 of 160 mg/kg. Further, the Activity in [2] was 0 mm. In addition, the zone of inhibition at 100 µg/disc with Bacillus subtilis was 0 mm. The compound further came in with a mortality at 1000 µg/mL in the data set on Aphididae of 55%.
In the case of `C[C@@H]1CC[C@@H](O)[C@H](O)CCCC(=O)O1`, the Activity in [2] was 0 mm; in data set [3] it was “Non-Toxic”. The zone of inhibition at 100 µg/disc in the data set with Bacillus subtilis is 0 mm. In addition, in the data set with Aphididae, the mortality at 1000 µg/mL is 33%.
`C[C@H]1OC(=O)CCC(=O)C[C@H](O)[C@H]2O[C@H]21`: the Activity was 1.1 mm in [2] and “Non-Toxic” in data set [3]. Further, the zone of inhibition at 100 µg/disc with Bacillus subtilis was determined as 0 mm. Moreover, the mortality at 1000 µg/mL with Aphididae is 13%.
Consider `CCC[C@H]1OC(=O)CCC/C=C/C(=O)[C@@H]1O` [STAGONOLIDE], for which the LC50 in [4] was 300 mg/kg. Further, in data set [1], the CC50 at 24 h was 3 µg/mL and 13 µM. Moreover, the mortality at 1000 µg/mL with Schizaphis graminum is 15%. The Activity in [2] is listed as 6.4 mm. For the same compound, the zone of inhibition at 100 µg/disc in the data set with Bacillus subtilis was determined as 38 mm.
Regarding `C[C@@H]1C[C@H](O)/C=C/C(=O)/C=C\C(=O)O1`, the CC50 at 24 h in data set [1] is < 1 µg/mL and < 5 µM. For the same compound, the Activity is 4.3 mm in data set [2], “Non-Toxic” with Paramecium caudatum and “Non-Toxic” in data set [3]. Besides, the zone of inhibition at 100 µg/disc with Bacillus subtilis amounted to 45 mm. In addition, the mortality at 1000 µg/mL in the data set on Aphididae came out at 10%.
With `C[C@H]1OC(=O)CC[C@H](O)/C=C/[C@H]2O[C@@H]12`, the Activity in data set [2] is given as 0 mm; in data set [3] it was “Non-Toxic”. Moreover, the zone of inhibition at 100 µg/disc in the data set on Bacillus subtilis turned out to be 0 mm. Moreover, in the data set with Aphididae, the mortality at 1000 µg/mL was 0%.
On to `C[C@@H]1CC[C@@H](O)/C=C/C=C\C(=O)O1` [STAGONOLIDE E], for which the Activity was 1.7 mm in [2] and “Non-Toxic” in data set [3]. Moreover, the zone of inhibition at 100 µg/disc with Bacillus subtilis is 0 mm. This compound also returned a mortality at 1000 µg/mL with Aphididae of 67%.
In the case of `CC(=O)O[C@@H]1CC[C@@H](C)OC(=O)/C=C\[C@@H]2O[C@H]21`, the CC50 at 24 h in [1] was > 100 µg/mL and > 420 µM. The Activity in data set [2] was 5.2 mm; in data set [3] it was “Non-Toxic”. Besides, the zone of inhibition at 100 µg/disc with Bacillus subtilis amounted to 0 mm. The same compound yielded a mortality at 1000 µg/mL with Aphididae of 23%.
`CCC[C@H]1OC(=O)CCC/C=C/[C@H](O)[C@@H]1O` [HERBARUMIN I] had a mortality at 1000 µg/mL in the data set with Schizaphis graminum of 54%. Besides, the Activity in data set [2] is 4.8 mm; in data set [3] it was “Non-Toxic”. Besides, the zone of inhibition at 100 µg/disc in the data set with Bacillus subtilis is 0 mm.
As for `C[C@@H]1CC[C@@H](O)[C@@H]2O[C@H]2/C=C\C(=O)O1`, the CC50 at 24 h in [1] is > 100 µg/mL and > 500 µM. For the same compound, the Activity in [2] was 5.5 mm; in data set [3], “Non-Toxic”. Moreover, the zone of inhibition at 100 µg/disc with Bacillus subtilis was found to be 0 mm. Also, in the data set with Aphididae, the mortality at 1000 µg/mL was found to be 8%.
The IC50 is the point on the concentration scale where inhibition reaches its midpoint. Higher therefore signals a need for much substance. Consider `C[C@@H]1C[C@H](O)/C=C/[C@@H](O)/C=C\C(=O)O1` [MODIOLIDE A], for which the IC50 in data set [5] was 292 µg/mL (≈ 1470 µM); in the data set on MCF7, 61 µg/mL (≈ 308 µM); in [6], > 125 µg/mL.
`C[C@@H]1CCC(=O)CCCCC(=O)O1`: the CC50 at 24 h in data set [1] is > 100 µg/mL and > 540 µM. For the same compound, the Activity was 0 mm in [2] and “Non-Toxic” in [3]. Also, in the data set on Bacillus subtilis, the zone of inhibition at 100 µg/disc came out at 0 mm.
